From US20240199572A1, “COMPOUNDS, COMPOSITIONS, AND METHODS FOR TREATING TYPE 2 DIABETES AND DEMENTIA” (THE BOARD OF TRUSTEES OF THE UNIVERSITY OF ILLINOIS, priority 2021, published 2024)

What was measured:
PPARγ = target: T1, PPARγ (Homo sapiens, UniProt P37231); test: LanthaScreen TR-FRET coactivator assay PPARγ (antagonism of pioglitazone); type: biochemical
T1 construct: purchased Thermo Fisher Scientific
T1 sequence (P37231 232-505 limits assumed): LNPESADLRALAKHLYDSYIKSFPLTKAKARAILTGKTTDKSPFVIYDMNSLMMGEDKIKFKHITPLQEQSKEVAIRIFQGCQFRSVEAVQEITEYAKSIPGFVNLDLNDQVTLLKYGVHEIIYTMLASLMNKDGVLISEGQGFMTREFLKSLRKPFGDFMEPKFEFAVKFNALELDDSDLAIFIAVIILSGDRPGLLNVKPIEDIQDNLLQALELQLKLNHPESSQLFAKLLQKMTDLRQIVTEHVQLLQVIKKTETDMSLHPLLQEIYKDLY
Protocol: TR-FRET Receptor Binding Assays. LanthaScreen” TR-FRET coactivator assay kits for LXRβ (Thermo Fisher Scientific) and PPARγ (Thermo Fisher Scientific) were performed according to manufacturer instructions using low-binding black 384-well plates and Synergy Neo2 plate reader. For the PPARγ assay, standardization was first performed with control agonist (pioglitazone), then run in two antagonist assays: dose-response of pioglitazone with or without a single concentration of CL2-57, and dose-response of CL2-57 cotreated with a single concentration (500 nM) of pioglitazone. Each compound dose was performed in quadruplicate on each plate, and each experiment was performed in triplicate.

LXRβ = target: T2, LXRβ (Homo sapiens, UniProt P55055); test: LanthaScreen TR-FRET coactivator assay LXRβ; type: biochemical
T2 construct: purchased Thermo Fisher Scientific
T2 sequence (P55055 212-460 limits assumed): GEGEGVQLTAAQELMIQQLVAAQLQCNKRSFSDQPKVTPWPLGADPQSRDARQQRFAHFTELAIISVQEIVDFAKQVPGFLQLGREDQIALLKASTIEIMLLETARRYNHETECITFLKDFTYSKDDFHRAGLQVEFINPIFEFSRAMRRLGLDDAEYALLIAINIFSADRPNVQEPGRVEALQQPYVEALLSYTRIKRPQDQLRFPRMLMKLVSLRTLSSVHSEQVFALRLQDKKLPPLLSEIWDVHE
Protocol: TR-FRET Receptor Binding Assays. LanthaScreen” TR-FRET coactivator assay kits for LXRβ (Thermo Fisher Scientific) and PPARγ (Thermo Fisher Scientific) were performed according to manufacturer instructions using low-binding black 384-well plates and Synergy Neo2 plate reader. […] Each compound dose was performed in quadruplicate on each plate, and each experiment was performed in triplicate.

[1] = test system: Nuclear hormone (NHR) receptors; test: All β-gal nuclear hormone receptor (NHR) screens; type: cell-based
Protocol: Receptor Binding Assays. Nuclear hormone (NHR) assays were performed by DiscoverX (Fremont, CA) on their NHR-Scan platform of cell-based protein-protein interaction assays. This platform uses a […] reporter that activates upon interaction of full-length receptor protein with steroid coactivator receptor peptides. In agonist mode, activity of CL2-57 at 10 μM was compared to maximal activity of published positive control agonists; in antagonist mode, reduction in activity with 10 μM CL2-57 from that observed at […] of published agonists was quantified.

CCOc1ccc(N(C)S(=O)(=O)c2cc(Cl)sc2C(=O)Nc2cccc(C(=O)O)c2)cc1OCC [CL2-129, 3-(5-Chloro-3-(N-(3,4-diethoxyphenyl)-N-methylsulfamoyl)thiophene-2-carboxamido)benzoic acid]
inactive: Activity in PPARγ TR-FRET binding assay (PPARγ) | Activity in LXRβ TR-FRET binding assay (LXRβ) | Activity in all of the β-gal screens [1]
